Values of other authors, collected in US20040102473A1, “Method of preventing or treating atherosclerosis or restenosis” (priority 2002, published 2004).

Test system: CMV
Settings: DHPG prophylaxis, Lemstrom et al., Circulation 1994

Nc1nc(O)c2ncn(COC(CO)CO)c2n1 [Ganciclovir]
prevention of atherosclerosis resulting from CMV infection of rats: prevent atherosclerosis
